This note sets out measurements from US10370380B2, “Octahydropyrrolo[3,4-c]pyrrole derivatives and uses thereof” (Sunshine Lake Pharma Co., Ltd., priority 2015, dated 2019).

One data set concerns the target T1, humanized OX2 receptor (Homo sapiens, UniProt O43614).
T1 construct: expressed in transfected cells; host or cells: HEK-293 cells
T1 sequence (O43614 1-444): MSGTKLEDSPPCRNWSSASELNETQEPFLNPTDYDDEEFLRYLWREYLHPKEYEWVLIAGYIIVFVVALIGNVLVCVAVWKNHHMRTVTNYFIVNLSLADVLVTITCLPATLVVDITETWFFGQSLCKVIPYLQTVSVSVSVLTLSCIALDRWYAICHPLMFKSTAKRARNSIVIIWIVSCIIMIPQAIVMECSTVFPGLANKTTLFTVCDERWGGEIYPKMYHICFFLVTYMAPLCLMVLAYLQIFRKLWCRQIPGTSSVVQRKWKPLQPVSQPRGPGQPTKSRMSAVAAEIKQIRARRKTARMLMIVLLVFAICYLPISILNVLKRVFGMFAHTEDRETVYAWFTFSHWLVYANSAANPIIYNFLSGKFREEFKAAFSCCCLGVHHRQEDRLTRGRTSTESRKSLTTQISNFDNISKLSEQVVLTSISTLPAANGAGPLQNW
In words: Antagonistic effect on humanized OX2 receptor, calcium flux by fluorescence detection in HEK-293 cells. The data set is classed as cell-based. As for the experimental part: (§1) The capability of the compounds provided herein to antagonize humanized OX2 receptors expressed in HEK-293 cells was evaluated by the influence of the compounds disclosed herein on calcium flux in cells induced by agonist detected by a method of fluorescence detection. The cells were suspended in DMEM culture medium (invitrogen), and then added to a microplate with an average density of 3×10^4 cells/well. The Hank's balanced salt solution (pH 7.4) containing fluorescent probes (Fluo4 NW, Invitrogen), probenecid (invitrogen), 20 mM […] (invitrogen) was added to the above microplate, and then incubated together with the cells at 37° C. for 60 min, further incubated at 22° C. for 15 min. The microplate was placed in a microplate reader (CellLux, PerkinElmer), and to which was added the test compound or reference antagonist or Hank's balanced salt solution, 5 min later, 10 nM of orexin B or Hank's balanced salt solution (as a blank contrast) was added. […] The experimental results were expressed as an inhibition percentage relative to a control group (the group with 10 nM of orexin B).
The standard reference antagonist is JNJ10397049, and IC50 values were calculated by the dose-effect curve obtained from a series of concentrations of the experimental test.
Background: Calcium flux is commonly read through the fluorescence of an indicator in the cells.

The target in the next data set is T2, humanized OX1 receptor (Homo sapiens, UniProt O43613).
T2 construct: expressed in transfected cells; host or cells: CHO (Chinese hamster ovary) cells
T2 sequence (O43613 1-425): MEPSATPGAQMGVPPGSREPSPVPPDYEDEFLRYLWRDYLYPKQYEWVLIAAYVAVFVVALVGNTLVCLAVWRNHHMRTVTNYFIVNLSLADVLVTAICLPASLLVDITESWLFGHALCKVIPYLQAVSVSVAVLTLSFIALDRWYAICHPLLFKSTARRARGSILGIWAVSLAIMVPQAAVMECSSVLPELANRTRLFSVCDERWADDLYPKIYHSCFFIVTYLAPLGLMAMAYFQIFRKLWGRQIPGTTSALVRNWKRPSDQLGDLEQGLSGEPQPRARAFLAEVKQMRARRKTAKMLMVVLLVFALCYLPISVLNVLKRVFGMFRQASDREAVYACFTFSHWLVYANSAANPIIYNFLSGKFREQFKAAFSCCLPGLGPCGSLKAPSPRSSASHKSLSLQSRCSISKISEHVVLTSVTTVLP
In words: Antagonistic effect on humanized OX1 receptor, calcium flux by fluorescence detection in CHO cells. Type of data set: cell-based. Particulars: CHO cells, calcium flux induced by 3 nM orexin A; read-out: OX1 IC50. Here is the method:
as §1, with “OX1 receptor” for “OX2 receptors”, “Chinese hamster ovary (CHO)” for “HEK-293”, “2×10^4” for “3×10^4”, “3” for “10”, “A” for “B”, “A).” for “B).”
The standard reference antagonist is SB334867, and IC50 values were calculated by the dose-effect curve obtained from a series of concentrations of the experimental test.

Data set [1] in a line: Pharmacokinetic evaluation after intravenous or gavage administration to rats. The data set is classed as in vivo, SD rats. Particulars: SD, rat, in vivo. As for the experimental part:
(§2) The compounds disclosed herein were administered in form of a saline solution containing 5% DMSO, 5% Kolliphor HS 15, 2% (2% HCl) and 88% Saline, or a solution containing 10% DMSO, 10% Kolliphor HS 15 and 80% physiological saline to the subject animals. For intravenous administration, the animals were administered with a dose of 1 mg/kg or 2 mg/kg, and vein blood samples (0.3 mL) were collected at the time points of 0.083, 0.25, 0.5, 1.0, 2.0, 4.0, 6.0, 8.0 and 24 h after drug administration; plasma samples were collected by centrifugation of the vein blood samples at 3000 rpm or 4000 rpm for 10 minutes, and stored at −20° C. or −70° C. For gavage administration, the animals were administered with a dose of 2.5 mg/kg or 5 mg/kg, and vein blood samples (0.3 mL) were collected at the time points of 0.25, 0.5, 1.0, 2.0, 4.0, 6.0, 8.0 and 24 h after drug administration; plasma samples were collected by centrifugation at 3000 rpm or 4000 rpm for 10 minutes, and stored at −20° C. or −70° C. The positive control is suvorexant.
(§3) The above plasma samples were analyzed by the LC-MS/MS system.

A short description of data set [2]: Pharmacokinetic evaluation after intravenous or gavage administration to dogs. Type of data set: in vivo, Beagle dogs. Particulars: beagle, dog, in vivo. As for the experimental part:
as §2, §3

Where [3] appears, read: HEK-293 cells, calcium flux induced by 10 nM orexin B, read-out: OX2 IC50.

Broadly, the IC50 is the concentration needed to halve the response being measured. One may read the AUC(0-inf) as total exposure, with the tail of the curve extrapolated. A lower AUC(0-inf) goes with less exposure. One may read the AUC(0-t) as exposure summed from dosing to a finite time, without extrapolation to infinity. Low values mean low exposure, high ones high exposure. By Cmax is commonly meant the peak of the concentration-time curve. The MRT inf is a mean duration of stay, worked out from the concentration-time curve. As usually defined, the half-life is how long it takes for the measured level to halve. A high value points to slow loss.

Like-named read-outs stand apart in the source and are kept apart here.

For `O=C(c1ccccc1-n1nccn1)N1CC2CN(c3nc4cc(F)ccc4o3)CC2C1` (centres unmarked) [Example 5, (2-(2H-1,2,3-triazol-2-yl)phenyl)(5-(5-fluorobenzo[d]oxazol-2-yl)hexahydropyrrolo[3,4-c]pyrrol-2(1H)-yl)methanone], the figures for the concentration for half-maximal inhibition (IC50) at humanized OX2 receptor (setting [3]) and at humanized OX1 receptor were 235 nM and 642 nM, respectively.

Regarding `O=C(c1ccccc1-n1nccn1)N1CC2CN(c3nc4cc(Cl)ccc4o3)CC2C1` (centres unmarked) [Example 2, (2-(2H-1,2,3-triazol-2-yl)phenyl)(5-(5-chlorobenzo[d]oxazol-2-yl)hexahydropyrrolo[3,4-c]pyrrol-2(1H)-yl)methanone], the IC50 on humanized OX2 receptor (setting [3]) was found to be 221 nM. Also, in data set [1] (iv, 1 mg/kg), the AUC(0-inf) is 551 ng·h/mL, the AUC(0-t) was 549 ng·h/mL, the highest level (Cmax) was 639 ng/mL and the mean residence time MRT inf is 47.2 min. In data set [1] (iv, 1 mg/kg), this compound gave a Vd of 1.42 L/kg, a clearance of 30.4 mL/min/kg and a half-life of 36.1 min. In data set [1] (po, 2.5 mg/kg), this compound registered a total exposure AUC(0-inf) of 790 ng·h/mL, an area under the curve AUC(0-t) of 783 ng·h/mL, a peak concentration (Cmax) of 485 ng/mL and an F of 57.3%. For the same compound, in data set [1] (po, 2.5 mg/kg), the MRT inf is 88.8 min and the half-life was 61.8 min.

`Cc1ccc(-n2nccn2)c(C(=O)N2CC3CN(c4nc5cc(F)ccc5o4)CC3C2)c1` (centres unmarked) [Example 4, (5-(5-fluorobenzo[d]oxazol-2-yl)hexahydropyrrolo[3,4-c]pyrrol-2(1H)-yl)(5-methyl-2-(2H-1,2,3-triazol-2-yl)phenyl)methanone]: the values for the IC50 on humanized OX2 receptor and on humanized OX1 receptor were 342 nM and 611 nM, respectively.

In data set [2] (iv, 1 mg/kg), `O=C(c1c(F)cccc1-n1nccn1)N1CC2CN(c3nc4cc(Cl)ccc4o3)CC2C1` (centres unmarked) [Example 3, (5-(5-chlorobenzo[d]oxazol-2-yl)hexahydropyrrolo[3,4-c]pyrrol-2(1H)-yl)(2-fluoro-6-(2H-1,2,3-triazol-2-yl)phenyl)methanone] came in with an area under the curve AUC(0-inf) of 8330 ng·h/mL, an AUC(0-t) of 8320 ng·h/mL, a maximum concentration (Cmax) of 3830 ng/mL and a mean residence time (MRT inf) of 175 min. In data set [2] (iv, 1 mg/kg), this compound had a Vd of 1.75 L/kg and a half-life of 144 min. Also, in data set [2] (po, 5 mg/kg), the exposure AUC(0-t) stood at 35000 ng·h/mL, the highest level (Cmax) was 5640 ng/mL, the F is on record as 84.0% and the mean residence time MRT inf was 275 min. The half-life in data set [2] (po, 5 mg/kg) is 176 min. At humanized OX2 receptor (setting [3]), the IC50 turned out to be 147 nM. For the same compound, in data set [1] (iv, 1 mg/kg), the AUC(0-inf) amounted to 626 ng·h/mL, the area under the curve AUC(0-t) is 624 ng·h/mL, the Cmax was determined as 760 ng/mL and the mean residence time (MRT inf) came to 45.5 min. In data set [1] (iv, 1 mg/kg), this compound gave a Vd of 1.21 L/kg, a clearance of 26.7 mL/min/kg and a half-life of 34.6 min. In data set [1] (po, 2.5 mg/kg), this compound gave an area under the curve AUC(0-inf) of 907 ng·h/mL, an AUC(0-t) of 904 ng·h/mL, a maximum concentration (Cmax) of 567 ng/mL and an F of 57.9%. In data set [1] (po, 2.5 mg/kg), this compound showed a mean residence time (MRT inf) of 82.2 min and a half-life of 52.4 min.

As to `O=C(c1c(F)cccc1-n1nccn1)N1CC2CN(c3nc4cc(F)ccc4o3)CC2C1` (centres unmarked) [Example 6, (2-fluoro-6-(2H-1,2,3-triazol-2-yl)phenyl)(5-(5-fluorobenzo[d]oxazol-2-yl)hexahydropyrrolo[3,4-c]pyrrol-2(1H)-yl)methanone], the half-maximal inhibitory concentration (IC50) on humanized OX2 receptor (setting [3]) turned out to be 201 nM; on humanized OX1 receptor, 589 nM.

As for `O=C(c1ccccc1-n1nccn1)N1CC2CN(c3ncc4cc(F)ccc4n3)CC2C1` (centres unmarked) [Example 13, (2-(2H-1,2,3-triazol-2-yl)phenyl)(5-(6-fluoroquinazolin-2-yl)hexahydropyrrolo [3,4-c]pyrrol-2(1H)-yl)methanone], in data set [1] (iv, 1 mg/kg), the AUC(0-inf) was determined as 865 ng·h/mL, the area under the curve AUC(0-t) came out at 864 ng·h/mL, the concentration peaked (Cmax) at 1270 ng/mL and the MRT inf amounted to 32.9 min. Moreover, in data set [1] (iv, 1 mg/kg), the Vd stood at 0.648 L/kg, the clearance was 20.1 mL/min/kg and the half-life is 30.1 min. In data set [1] (po, 2.5 mg/kg), this compound returned an area under the curve AUC(0-inf) of 752 ng·h/mL, an AUC(0-t) of 750 ng·h/mL, a Cmax of 537 ng/mL and an F of 34.7%. In data set [1] (po, 2.5 mg/kg), this compound showed a mean residence time MRT inf of 70.2 min and a half-life of 41 min.

As to `Cc1ccc(-n2nccn2)c(C(=O)N2CC3CN(c4ncc5cc(F)ccc5n4)CC3C2)c1` (centres unmarked) [Example 12, (5-(6-fluoroquinazolin-2-yl)hexahydropyrrolo[3,4-c]pyrrol-2(1H)-yl)(5-methyl-2-(2H-1,2,3-triazol-2-yl)phenyl)methanone], in data set [2] (iv, 1 mg/kg), the AUC(0-inf) is 1140 ng·h/mL, the AUC(0-t) was 1130 ng·h/mL, the Cmax was found to be 1390 ng/mL and the MRT inf was 58.2 min. Besides, in data set [2] (iv, 1 mg/kg), the Vd came out at 0.85 L/kg, the clearance amounted to 14.7 mL/min/kg and the half-life was 42 min. In data set [2] (po, 5 mg/kg), this compound came in with an AUC(0-inf) of 7880 ng·h/mL, an AUC(0-t) of 7310 ng·h/mL, a Cmax of 2310 ng/mL and an F of 129.4%. In data set [2] (po, 5 mg/kg), this compound showed an MRT inf of 187 min and a half-life of 119 min. The IC50 on humanized OX2 receptor (setting [3]) was found to be 140 nM. In data set [1] (iv, 1 mg/kg), this compound gave an AUC(0-inf) of 460 ng·h/mL, an area under the curve AUC(0-t) of 460 ng·h/mL, a maximum concentration (Cmax) of 749 ng/mL and a mean residence time (MRT inf) of 25.6 min. In data set [1] (iv, 1 mg/kg), this compound showed a Vd of 0.987 L/kg, a clearance of 40.1 mL/min/kg and a half-life of 24.3 min. In data set [1] (po, 2.5 mg/kg), the AUC(0-inf) came to 454 ng·h/mL, the AUC(0-t) amounted to 452 ng·h/mL, the highest concentration (Cmax) was 340 ng/mL and the F is 39.3%. Besides, in data set [1] (po, 2.5 mg/kg), the mean residence time (MRT inf) came to 76.8 min and the half-life was 50.2 min. On humanized OX1 receptor, the IC50 is 347 nM.
